Broadly, the inhibition is the drop in the measured response relative to a control, in per cent. The low end stands for little suppression, the high end for strong suppression. As a reminder, the IC50 is the concentration needed to halve the response being measured.

Like-named read-outs stand apart in the source and are kept apart here.

For data set [1], the system named is PBMCs. Briefly: Cell mitosis assay in PBMCs. Format: cell-based. Conditions: Homo sapiens, PBMC, 5 μg/mL. In a few lines: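 Human PBMCs from healthy donors, density-gradient isolated, stimulated with 2% PHA 48 h, then exposed 20 h to test compounds; demecolcine 0.1 μg/mL added 2 h before harvest. Fixed/permeabilised cells stained for phospho-histone H3 and propidium iodide; mitotic lymphocytes counted by flow cytometry.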

For data set [2], the system named is Lewis rats. Briefly: Endotoxin-induced uveitis in rats. The format is in vivo. Conditions: rats treated with intravitreal endotoxin LPS. Here is the method: Male, Lewis rats (6-8 weeks old, Charles River UK Limited) are housed in cages of 3 at 19-21° C. with a 12 h light/dark cycle (07:00/19:00) and fed a standard diet of rodent chow and water ad libitum. Non-fasted rats are weighed, individually identified on the tail with a permanent marker, and receive a single intravitreal administration into the right vitreous humor (5 μL dose volume) of 100 ng/animal of LPS (Escherichia coli 0111:B4 prepared in PBS, Sigma Aldrich, UK) using a 32-gauge needle. Untreated rats are injected with PBS. Test compound, dexamethasone (Dex) or vehicle (20% hydroxypropyl-β-cyclodextrin, 0.1% HPMC, 0.01% Benzalkonium chloride, 0.05% EDTA, 0.7% NaCl in deionised water) are administered by the topical route onto the right eye (10 μL) of animals 30 minutes prior to LPS, at the time of LPS administration, and 1, 2 and 4 hours post LPS administration. Before administration, the solution or suspension to be administered is agitated for 5 minutes to ensure a uniform suspension. 6 hours after LPS dosing, animals are euthanized by overdose with pentobarbitone (i.v.). Following euthanasia, the right eye of each animal is enucleated and dissected into front (anterior) and back (posterior) sections around the lens. Each section is weighed and homogenised in 500 μL of sterile phosphate buffered saline followed by 20 minutes centrifugation at 12000 rpm at 4° C. The resulting supernatant is divided into 3 aliquots and stored at −80° C. until subsequent cytokine analysis by R&D DuoSet ELISA.

Data set [3] concerns d-U937 cells. Briefly: LPS-induced TNFα/IL-8 release in d-U937 cells. The format is cell-based. The following applies: Homo sapiens, dU937, assay (aa). Here is the method: U937 cells, a human monocytic cell line, are differentiated to macrophage-type cells by incubation with phorbol myristate acetate (PMA; 100 ng/mL) for 48 to 72 hr. Cells are pre-incubated with final concentrations of test compound for 2 hr and are then stimulated with 0.1 μg/mL of LPS (from E. Coli: 0111:B4, Sigma) for 4 hr. The supernatant is collected for determination of TNFα and IL-8 concentrations by sandwich ELISA (Duo-set, R&D systems). […] The relative 50% effective concentration (REC50) is determined from the resultant concentration-response curve. The inhibition of IL-8 production is calculated at each concentration of test compound by comparison with vehicle control.

Data set [4] is described as follows: Plasma pharmacokinetics and total colon tissue distribution in mice, single oral administration. The format is in vivo, C57BL/6 mice. Conditions: male, C57BL/6, mouse, 5 mg/kg, read-out: Median plasma concentration. Here is the method:
Studies were conducted by Sai Life Sciences (Hinjewadi, Pune, India) to investigate the plasma pharmacokinetics and total colon tissue distribution of compounds of the invention. In particular, pharmacokinetic studies were carried out in: • male C57BL/6 mice, following a single oral administration; and • male Wistar rats following a single intravenous or oral administration.

Data set [5] in a line: Analysis of metabolites after incubation with hepatocytes. The format is in vitro ADME. The following applies: rat, Cynomolgus macaque, human hepatocytes. Here is the method: Studies were conducted by BioFocus (Saffron Walden, UK) to determine the metabolic fate of the compound of Example 16 following incubation with rat, Cynomolgus macaque or human hepatocytes.
Separate incubations (n=3) of the compound of Example 16 (10 μM initial concentration) or DMSO control, were performed with cryopreserved hepatocytes from each species (0.5 million cell/mL) at 37° C. for 0, 60 and 90 minutes before termination of reactions and compound extraction with acetonitrile. Sample replicates were pooled prior to analysis.
Potential metabolites were identified using time-of-flight (TOF) and triple quadruple (TQ) mass spectrometers.

For the molecule `COc1cc(Nc2cc(Oc3ccc(NC(=O)Nc4cc(C(C)(C)C)cc(NS(C)(=O)=O)c4OC)c4ccccc34)ccn2)cc(C(=O)NCCN2CCOCC2)c1` [Example 27, 3-((4-((4-(3-(5-(tert-Butyl)-2-methoxy-3-(methylsulfonamido)phenyl)ureido)naphthalen-1-yl)oxy)pyridin-2-yl)amino)-5-methoxy-N-(2-morpholinoethyl)benzamide], the inhibition at 5 µg/mL in data set [1] worked out at 49.8%. The “cytokine levels in the anterior and posterior segments of the eyes” value in data set [2] is “significantly reduced”.
`COCCOCCOCCOc1cc(Nc2nccc(Oc3ccc(NC(=O)Nc4cc(C(C)(C)C)cc(NS(C)(=O)=O)c4OC)c4ccccc34)n2)cc(OC)c1` [Example 4, N-(5-(tert-Butyl)-2-methoxy-3-(3-(4-((2-((3-methoxy-5-(2-(2-(2-methoxyethoxy)ethoxy)-ethoxy)phenyl)amino)pyrimidin-4-yl)oxy)naphthalen-1-yl)ureido)phenyl)methanesulfonamide]: the IC50 in data set [3] (method: relative to 10 μg/mL BIRB796 (REC50), read-out: IC50 Values for Inhibition of Cytokine Release dU937 cells TNFα) came to 1 nM; in data set [3] (read-out: IC50 Values for Inhibition of Cytokine Release dU937 cells IL-8), 0.8 nM. Also, testing at 5 µg/mL in data set [1] gave an inhibition of 43%. In data set [2], the “cytokine levels in the anterior and posterior segments of the eyes” value is reported as “significantly reduced”.
In data set [1], `C#Cc1cc(Nc2nccc(Oc3ccc(NC(=O)Nc4cc(C(C)(C)C)cc(NS(C)(=O)=O)c4OC)c4ccccc34)n2)cc(C(=O)NCCOCCOCCOC)c1` [Example 16, 3-((4-((4-(3-(5-(tert-Butyl)-2-methoxy-3-(methylsulfonamido)phenyl)ureido)naphthalen-1-yl)oxy)pyrimidin-2-yl)amino)-5-ethynyl-N-(2-(2-(2-methoxyethoxy)ethoxy)ethyl)benzamide] came in with an inhibition at 5 µg/mL of 20.5%. For the same molecule, in data set [4], the concentration at 1 h was found to be 0 µg/mL, the concentration at 2 h is 0 µg/mL, the concentration at 4 h came out at 0 µg/mL and the concentration at 6 h stood at 0 µg/mL. Also, in data set [4], the concentration at 8 h is 0 µg/mL, the concentration at 12 h worked out at 0 µg/mL and the concentration at 24 h was 0 µg/mL. In addition, in data set [5] (10 μM, 0, 60 and 90 minutes), the “number of metabolites formed in hepatocytes” value is reported as 9. Besides, in data set [5] (10 μM), the “metabolism at the naphthalene moiety” value was “no products were noted that could be connected to metabolism at the naphthalene moiety”.

The values above are taken from US10435361B2, “Kinase inhibitors” (Topivert Pharma Limited, priority 2013, dated 2019).
